According to paper PMC3014449 (Molecular immunology, 2010):

System: classical pathway activation of complement in human serum
Experiment: Inhibition of complement activation
Format: biochemical
Details: NA: not active at the highest concentrations tested; for IC50: complement inhibition assay, initiation via the classical pathway, human serum; for IC50 fold change: relative to peptide 1

Row | Substance | IC50 | IC50 fold change
1 | Ac-I[CVYQDWG(NMe)AHRC]T-NH2 [Peptide 9] | completely inactive | 
2 | Ac-I[CV(NMe)YQDWGAHRC]T-NH2 [Peptide 4] | completely inactive | 
3 | Ac-I[CVYQDWGAHR(NMe)C]T-NH2 [Peptide 12] | 154 µM | 0.02
4 | Ac-I[C(NMe)VYQDWGAHRC]T-NH2 [Peptide 3] | completely inactive | 

Other lines, results leading:

Row | IC50 | IC50 fold change | Substance
5 | 33 µM | 0.07 | Ac-I[CVY(NMe)QDWGAHRC]T-NH2 [Peptide 5]
6 | 1.43 µM | 1.7 | Ac-I[CVYQDW(NMe)GAHRC]T-NH2 [Peptide 8]
7 | 25 µM | 0.1 | Ac-I[CVYQD(NMe)WGAHRC]T-NH2 [Peptide 7]
8 | 32 µM | 0.08 | Ac-I[CVYQDWGAH(NMe)RC]T-NH2 [Peptide 11]
9 | 44 µM | 0.06 | Ac-I[CVYQ(NMe)DWGAHRC]T-NH2 [Peptide 6]
10 | 94 µM | 0.03 | Ac-I[CVYQDWGA(NMe)HRC]T-NH2 [Peptide 10]
